Source: patent US20050129772A1, “Compositions comprising an HIV protease inhibitor” (Agouron Pharmaceuticals, Inc., priority 2003, published 2005)
Values joined by “and” are separate entries in the source; they are usually repeats but may differ in a detail not shown here. Identical values can stand only once.

Legend:
[1] = aqueous solubility of crystalline Compound A; type: physicochemical; details: 26° C.
Description: The compound (4R)—N-allyl-3-{(2S,3S)-2-hydroxy-3-[(3-hydroxy-2-methylbenzoyl)amino]-4-phenylbutanoyl}-5,5-dimethyl-1,3-thiazolidine-4-carboxamide (also called “(R)-3-((2S,3S)-2-hydroxy-3-{[1-(3-hydroxy-2-methyl-phenyl)-methanoyl]-amino}-4-phenyl-butanoyl)-5,5-dimethyl-thiazolidine-4-carboxylic acid allylamide,” “(4R)-3-[(2S,3S)-2-hydroxy-3-(3-hydroxy-2-methyl-benzoylamino)-4-phenyl-butyryl]-5,5-dimethyl-thiazolidine-4-carboxylic acid allylamide,” or “4-thiazolidinecarboxamide, 3-[(2S,3S)-2-hydroxy-3-[(3-hydroxy-2-methylbenzoyl)amino]-1-oxo-4-phenylbutyl]-5,5-dimethyl-N-2-propenyl-, (4R)-,” and hereinafter referred to as “Compound A”) is an inhibitor of the HIV protease enzyme that may be used for the treatment of HIV-infected mammals, such as humans. Compound A and its preparation are disclosed in U.S. patent application Ser. Nos. 10/166,979 filed Jun. 11, 2002; 60/527,477, filed Dec. 4, 2003, and, 10/782,602, filed Dec. 4, 2003, all of which incorporated herein by reference for this purpose. […] This low aqueous solubility, combined with a low in vivo permeability, result in low oral bioavailability for crystalline Compound A.

[2] = in vitro dissolution test in PBS at pH 6.5 and 290 mOsm/kg, 37° C.; type: physicochemical; design: AUC: concentration or dose not given beside the values; details: for AUC90 (area under the concentration-versus-time curve during the initial ninety minutes) / AUC1200 / C1200 (Compound A concentration at 1200 minutes) / MDC90 (maximum concentration of drug during the initial ninety minutes): dose 3000 μg/mL; for Compound A Concentration: 3000 μg/mL if all dissolved
Procedure: An in vitro dissolution test was performed to determine whether the amorphous Compound A of Example 1 provides concentration-enhancement relative to the crystalline form of Compound A. For this test, a sufficient amount of material was added to a microcentrifuge test tube so that the concentration of Compound A would have been 3000 μg/mL, if all of Compound A had dissolved. The test was run in duplicate. The tubes were placed in a 37° C. temperature-controlled chamber, and 1.8 mL PBS at pH 6.5 and 290 mOsm/kg was added to each respective tube. The samples were quickly mixed using a vortex mixer for about 60 seconds. The samples were centrifuged at 13,000 G at 37° C. for 1 minute. The resulting supernatant solution was then sampled and diluted 1:6 (by volume) with methanol and then analyzed by high-performance liquid chromatography (HPLC). HPLC analysis was performed using a Phenomenex Luna C18 column. The mobile phase consisted of 55% 20 mM KH2PO4, adjusted to pH 3 with H3PO4, and 45% acetonitrile. UV absorbance was measured at 210 nm. The contents of each tube were mixed on the vortex mixer and allowed to stand undisturbed at 37° C. until the next sample was taken. Samples were collected at 4, 10, 20, 40, 90 and 1200 minutes. Control 1 consisted of crystalline Form I of Compound A alone, and a sufficient amount of material was added so that the concentration of Compound A would have been 3000 μg/mL, if all of Compound A had dissolved. The concentrations of drug obtained in these samples were used to determine the maximum concentration of drug (“MDC90”), the area under the concentration-versus-time curve (“AUC90”) during the initial ninety minutes, and the Compound A concentration at 1200 minutes (“[…]”). Example 2 was prepared by combining amorphous Compound A and a concentration-enhancing polymer. A simple physical mixture of Compound A and the concentration-enhancing polymer hydroxypropyl methyl cellulose acetate succinate (AQUOT-MG, available from Shin Etsu, Tokyo, Japan) was prepared by adding 5.4 mg of amorphous Compound A prepared as in Example 1 and 0.6 mg of HPMCAS to a centrifuge tube. The dry powders were mixed using a vortex mixer for 1 minute. Dissolution tests were performed as described in Example 1. […] For these tests, a sufficient amount of material was added so that the concentration of Compound A would have been 3000 μg/mL, if all of Compound A had dissolved. […] Examples 37A, 37B and 37C were prepared as in Example 2, but with the following exceptions: Example 37A was 5.4 mg Compound A and 0.6 mg HPMCAS; Example 37B was 5.4 mg Compound A and 0.167 mg HPMCAS; and Example 37C was 5.4 mg Compound A and 0.055 mg HPMCAS. Example 37D consisted of amorphous Compound A alone. MDC360 is the maximum dissolved drug concentration within the first 360 minutes, and AUC360 is the area under the dissolved drug concentration versus time curve at 360 minutes.

[3] = oral dosing to fasted beagle dogs, plasma drug concentration; type: in vivo; details: 25 mgA/kg; for AUC0-Tlast: oral gavage suspension in 0.5 wt % Methocel, plasma
Procedure: The area under the concentration-versus-time curve (“AUCO-Tlast”, ng*hr/mL), from the time the dose was administered to the last sample, is shown in Table 17. Crystalline Form I of Compound A (Control 1) and amorphous Compound A (Example 1) were tested using a similar protocol. The dose was administered to dogs as a suspension in a solution containing 0.5 wt % Methocel® (HPMC, USP grade, 4000 cps, Dow Chemical Co.). Oral administration of the aqueous drug suspensions was facilitated using an oral gavage equipped with a polyethylene tube insert. The polyethylene tube insert was used to accurately deliver the desired volume of dose by displacement, without the need for additional volume of water to rinse the tube. The dose was 25 mgA/kg (“mgA” refers to mg of active drug).

[4] = time 10 min, PBS pH 6.5, 37° C.
[5] = time 20 min, PBS pH 6.5, 37° C.
[6] = time 40 min, PBS pH 6.5, 37° C.
[7] = time 90 min, PBS pH 6.5, 37° C.
[8] = time 1200 min, PBS pH 6.5, 37° C.
[9] = PBS pH 6.5, 37° C., listed as Ex 1

AUC90 (area under the concentration-versus-time curve during the initial ninety minutes) ([2]; PBS pH 6.5, 37° C.) | AUC1200 ([2]; PBS pH 6.5, 37° C.) | C1200 (Compound A concentration at 1200 minutes) ([2]; PBS pH 6.5, 37° C.) | MDC90 (maximum concentration of drug during the initial ninety minutes) ([2]; PBS pH 6.5, 37° C.) | AUC ([2]; time 0 min, PBS pH 6.5, 37° C.) | Compound A Concentration ([2]; time 0 min, PBS pH 6.5, 37° C.) | AUC ([2]; time 4 min, PBS pH 6.5, 37° C.) | Compound A Concentration ([2]; time 4 min, PBS pH 6.5, 37° C.) | AUC [2, 4] | Compound A Concentration [2, 4] | AUC [2, 5] | Compound A Concentration [2, 5] | AUC [2, 6] | Compound A Concentration [2, 6] | AUC [2, 7] | Compound A Concentration [2, 7] | AUC [2, 8] | Compound A Concentration [2, 8] | AUC0-Tlast [3] | SMILES | further results
 |  |  |  |  |  |  |  |  |  |  |  |  |  |  |  |  |  |  | C=CCNC(=O)[C@H]1N(C(=O)[C@@H](O)[C@H](Cc2ccccc2)NC(=O)c2cccc(O)c2C)CSC1(C)C [Compound A, (4R)—N-allyl-3-{(2S,3S)-2-hydroxy-3-[(3-hydroxy-2-methylbenzoyl)amino]-4-phenylbutanoyl}-5,5-dimethyl-1,3-thiazolidine-4-carboxamide] | aqueous solubility ([1]; 0.1 N HCl (pH 1.2)): about 0.16 mgA/mL; aqueous solubility ([1]; normal saline (pH 8.2)): ~0.14 mgA/mL; aqueous solubility ([1]; unbuffered water (pH 8.3)): about 0.16 mgA/mL
9200 µg·min/mL | 132,000 min*μg/mL | 109 µg/mL | 112 µg/mL | 0 µg·min/mL | 0 µg/mL | 200 µg·min/mL | 100 µg/mL | 800 µg·min/mL | 100 µg/mL | 1800 µg·min/mL | 106 µg/mL | 3900 µg·min/mL | 101 µg/mL | 9200 µg·min/mL | 112 µg/mL | 131,700 min * μg/mL | 109 µg/mL | 300 ng·h/mL | C=CCNC(=O)[C@H]1N(C(=O)[C@@H](O)[C@H](Cc2ccccc2)NC(=O)c2cccc(O)c2C)CSC1(C)C [Control 1, (4R)—N-allyl-3-{(2S,3S)-2-hydroxy-3-[(3-hydroxy-2-methylbenzoyl)amino]-4-phenylbutanoyl}-5,5-dimethyl-1,3-thiazolidine-4-carboxamide] | 
75,900 min * μg/mL | 233,000 min*μg/mL | 126 µg/mL | 1153 µg/mL and 1150 µg/mL | 0 µg·min/mL | 0 µg/mL | 2100 µg·min/mL | 1070 µg/mL | 8800 µg·min/mL | 1140 µg/mL | 20,200 min * μg/mL | 1150 µg/mL | 43,200 min * μg/mL | 1150 µg/mL | 75,900 min * μg/mL | 158 µg/mL | 233,200 min * μg/mL | 126 µg/mL | 3500 ng·h/mL | C=CCNC(=O)[C@H]1N(C(=O)[C@@H](O)[C@H](Cc2ccccc2)NC(=O)c2cccc(O)c2C)CSC1(C)C [Example 1, (4R)—N-allyl-3-{(2S,3S)-2-hydroxy-3-[(3-hydroxy-2-methylbenzoyl)amino]-4-phenylbutanoyl}-5,5-dimethyl-1,3-thiazolidine-4-carboxamide] | AUC90 relative to crystalline Form I of Compound A ([2]; PBS pH 6.5, 37° C.): 8.3 fold; MDC relative to crystalline Form I of Compound A ([2]; PBS pH 6.5, 37° C.): 10.3 fold; AUC90 (area under the concentration-versus-time curve during the initial ninety minutes) [2, 9]: 75,900 min * μg/mL; C1200 (Compound A concentration at 1200 minutes) [2, 9]: 126 µg/mL; MDC90 (maximum concentration of drug during the initial ninety minutes) [2, 9]: 1150 µg/mL; relative bioavailability (AUC of test composition divided by AUC of crystalline Form I of Compound A alone) ([3]; oral): 11.7 fold
 |  |  |  |  |  |  |  |  |  |  |  |  |  |  |  |  |  |  | C=CCNC(=O)[C@H]1N(C(=O)[C@@H](O)[C@H](Cc2ccccc2)NC(=O)c2cccc(O)c2C)CSC1(C)C [Example 37D, (4R)—N-allyl-3-{(2S,3S)-2-hydroxy-3-[(3-hydroxy-2-methylbenzoyl)amino]-4-phenylbutanoyl}-5,5-dimethyl-1,3-thiazolidine-4-carboxamide] | AUC360 (area under the dissolved drug concentration versus time curve at 360 minutes) ([2]; dissolution as in Example 2): 180,000 min*μg/ml; MDC360 (maximum dissolved drug concentration within the first 360 minutes) ([2]; dissolution as in Example 2): 1190 µg/mL; C1200 ([2]; dissolution as in Example 2 (Example 37 series)): 140 µg/mL
